Results: patent US8288158B2, “Stem cells modified to facilitate threonine catabolism” (Board of Regents, The University of Texas System, priority 2009, dated 2012)

What was measured:
[1] = test system: HeLa cells; test: HeLa cell growth with 3-HNV; format: cell-based
Protocol: (§1) Instead of the normal, 400 uM level of glycine, threonine-deficient medium was supplemented with 4 mM glycine. ES cells subjected to this threonine-deficient, glycine-enriched medium grew no better than those subjected to the threonine drop out medium itself. It is possible that ES cells are unable to deliver the supplemented glycine to mitochondria in order to feed the glycine cleavage system and folate charging. Alternatively, it is also possible that TDH-mediated production of acetyl-CoA is equally important to the HFB-like metabolic state. This alternative interpretation is consistent with the observation that among all metabolites that decline in abundance most precipitously as a function of the conversion of ES cells into differentiating embryoid bodies, acetyl-CoA was second only to the purine intermediate AICAR. In order to investigate these alternatives, we employed 3-hydroxynorvaline (3-HNV), a synthetic variant of threonine containing an extra carbon atom. It is known that the TDH enzyme can […] this threonine analog, yet instead of producing glycine and acetyl-CoA, catabolism of 3-HNV yields glycine and propionyl-CoA (15). ES cells were cultured in either normal or threonine-deficient medium supplemented with varying levels of 3-HNV. […] The inhibitory effect of 3-HNV was not observed on the growth of HeLa, MEF or 3T3 cells.

[2] = test system: MEF cells; test: MEF cell growth with 3-HNV; format: cell-based, mouse
Protocol: as §1

[3] = test system: 3T3 cells; test: 3T3 cell growth with 3-HNV; format: cell-based
Protocol: as §1

[4] = test system: morula-staged embryos; test: Early mouse embryo development (morula to blastocyst) in culture with 3-HNV; format: cell-based
Protocol: The availability of 3-HNV as a cell-permeable threonine analog facilitated experiments using living mouse embryos. Before testing the effects of 3-HNV on early mouse embryo development, in situ hybridization and immunohistochemical staining assays were performed to investigate the expression pattern of both TDH mRNA and TDH enzyme (16). […] Knowing that the ICM represents the in vivo source of ES cells (17), we hypothesized that the early development of mouse embryos might be inhibited by 3-HNV. […] These studies indicate that ICM cells of the early mouse embryo, like cultured mouse ES cells, are critically dependent upon threonine catabolism.
• 1. B. Alberts et al., Molecular Biology of the Cell (Garland Publishing, Inc., New York, ed. March, 2007), pp. 1-1392. • 2. A. G. Smith, Annu. Rev. Cell Dev. Biol. 17, 435 (2001). • 3. B. P. Tu et al., Proc. Natl. Acad. Sci. U.S.A. 104, 16886 (2007). • 4. L. Warren, J. M. Buchanan, J. Biol. Chem. 229, 613 (1957). • H. Weissbach, A. Peterkofsky, B. G. Redfield, H. Dickerman, J. Biol. Chem. 238, 3318 (1963). • 6. E. A. Phear, D. M. Greenberg, J. Am. Chem. Soc. 79, 3737 (1957). • 7. Total RNA was extracted with RNA STAT-60 (Tel-Test) and converted into cDNA with oligo(dT) primer using the SuperScript first-strand synthesis kit (Invitrogen). PCR was performed on an AB 7900HT fast real-time PCR system (Applied Bioscience) using a TDH specific primer pair. • 8. R. A. Dale, Biochim. Biophys. Acta. 544, 496 (1978). • 9. TDH cDNA with an in-frame Flag tag sequence fused to the carboxyl terminus of the enzyme was cloned into mammalian expression vector pcDNA3.1 at EcoR1/Xho1 sites. The resultant vector was transfected into 293T cells using Lipofectamine 2000 reagent (Invitrogen). Stable transformants were selected in media containing 500 μg/ml G418 and characterized by western blotting analysis using anti-Flag antibody (Sigma). To extract mitochondrial protein, cells were homogenized in the buffer containing 10 mM Tris-HCl (pH 7.5), 250 mM sucrose and 2 mM EDTA on ice with a glass pestle douncer. Mitochondria were isolated from homogenates through a two-step differential centrifugation procedure at 600 and 11,000 g for 10 m each at 4° C. Mitochondrial protein was then extracted in 100 mM potassium phosphate buffer (pH 7.4) containing 0.1% NP-40, 10 mM DTT and 1× protease inhibitor cocktail (Sigma). TDH activity was determined by measuring the rate of formation of NADH at 25° C. The assay mixture contained 100 mM Tris-HCl (pH 8.0), 25 mM L-threonine, 5 mM NAD and 25 mM NaCl in a final volume of […] The reaction was initiated by the addition of mitochondrial protein extract, and absorbance of the reaction mixture at 340 nM was recorded continuously on a microplate reader. • 10. […]

[5] = test system: mouse ES cells; test: ES cell colony formation in normal or threonine-deficient medium with 3-HNV; format: cell-based; details: varying levels of 3-HNV
Protocol: Instead of the normal, 400 uM level of glycine, threonine-deficient medium was supplemented with 4 mM glycine. ES cells subjected to this threonine-deficient, glycine-enriched medium grew no better than those subjected to the threonine drop out medium itself. It is possible that ES cells are unable to deliver the supplemented glycine to mitochondria in order to feed the glycine cleavage system and folate charging. Alternatively, it is also possible that TDH-mediated production of acetyl-CoA is equally important to the HFB-like metabolic state. This alternative interpretation is consistent with the observation that among all metabolites that decline in abundance most precipitously as a function of the conversion of ES cells into differentiating embryoid bodies, acetyl-CoA was second only to the purine intermediate AICAR. In order to investigate these alternatives, we employed 3-hydroxynorvaline (3-HNV), a synthetic variant of threonine containing an extra carbon atom. […]
• 1. […] TDH activity was determined by measuring the rate of formation of NADH at 25° C. The assay mixture contained 100 mM Tris-HCl (pH 8.0), 25 mM L-threonine, 5 mM NAD and 25 mM NaCl in a final volume of […] The reaction was initiated by the addition of mitochondrial protein extract, and absorbance of the reaction mixture at 340 nM was recorded continuously on a microplate reader. • 10. […]

CCC(O)[C@H](N)C(=O)O (stereo partly drawn) [3-HNV, 3-hydroxynorvaline]
inhibitory effect on cell growth [1]: not observed | inhibitory effect on cell growth [2]: not observed | inhibitory effect on cell growth [3]: not observed | conversion of morula-staged embryos into cavitated blastocysts ([4]; 100 uM 3-HNV): A more modest degree of inhibition | conversion of morula-staged embryos into cavitated blastocysts ([4]; 300 uM 3-HNV): blocked the conversion of morula-staged embryos into cavitated blastocysts | conversion of morula-staged embryos into cavitated blastocysts ([4]; 1 mM 3-HNV): blocked the conversion of morula-staged embryos into cavitated blastocysts | embryo development with threonine supplementation ([4]; 1 mM 3-HNV, medium supplemented by 4 mM threonine): Complete rescue of normal development | ES cell colony formation ([5]; normal culture medium): inhibited ES cell colony formation | complementation of the absence of threonine (ES cell colony formation) ([5]; threonine-deficient medium): fail to complement the absence of threonine
